Assay: xn = mol fraction of the nth substance listed
Details: for mass density: 101 kPa, Liquid

CCCCO [butan-1-ol] + CCCCCCC
Details | mass density [kg/m3] | surface tension liquid-gas [mN/m]
288.15 K, x2 = 0.0498 | – | 24.31
288.15 K, x2 = 0.051 | 803.35 | –
288.15 K, x2 = 0.0998 | 794.33 | –
288.15 K, x2 = 0.1007 | – | 23.81
288.15 K, x2 = 0.2005 | – | 22.99
288.15 K, x2 = 0.2067 | 776.12 | –
288.15 K, x2 = 0.3043 | – | 22.37
288.15 K, x2 = 0.3087 | 760.61 | –
288.15 K, x2 = 0.4058 | – | 21.88
288.15 K, x2 = 0.4059 | 747.14 | –
288.15 K, x2 = 0.5052 | 734.63 | –
288.15 K, x2 = 0.5054 | – | 21.56
288.15 K, x2 = 0.5986 | 724.01 | –
288.15 K, x2 = 0.599 | – | 21.38
288.15 K, x2 = 0.7072 | – | 21.17
288.15 K, x2 = 0.7259 | 710.89 | –
288.15 K, x2 = 0.8008 | – | 21.03
288.15 K, x2 = 0.8066 | 703.39 | –
288.15 K, x2 = 0.8982 | – | 20.94
288.15 K, x2 = 0.908 | 694.8 | –
288.15 K, x2 = 0.9523 | 691.35 | –
288.15 K, x2 = 0.9532 | – | 20.87
293.15 K, x2 = 0.0503 | – | 23.76
293.15 K, x2 = 0.051 | 799.52 | –
293.15 K, x2 = 0.0998 | 790.46 | –
293.15 K, x2 = 0.1008 | – | 23.26
293.15 K, x2 = 0.201 | – | 22.44
293.15 K, x2 = 0.2067 | 772.16 | –
293.15 K, x2 = 0.2986 | – | 21.85
293.15 K, x2 = 0.3087 | 756.57 | –
293.15 K, x2 = 0.4002 | – | 21.37
293.15 K, x2 = 0.4059 | 743 | –
293.15 K, x2 = 0.5009 | – | 21.01
293.15 K, x2 = 0.5052 | 730.46 | –
293.15 K, x2 = 0.5986 | 719.8 | –
293.15 K, x2 = 0.5998 | – | 20.79
293.15 K, x2 = 0.7034 | – | 20.62
293.15 K, x2 = 0.7259 | 706.65 | –
293.15 K, x2 = 0.7971 | – | 20.51
293.15 K, x2 = 0.8066 | 699.15 | –
293.15 K, x2 = 0.902 | – | 20.37
293.15 K, x2 = 0.908 | 690.55 | –
293.15 K, x2 = 0.9511 | – | 20.33
293.15 K, x2 = 0.9523 | 687.11 | –
298.15 K, x2 = 0.051 | 795.66 | –
298.15 K, x2 = 0.056 | – | 23.17
298.15 K, x2 = 0.0937 | – | 22.75
298.15 K, x2 = 0.0998 | 786.55 | –
298.15 K, x2 = 0.2067 | 768.15 | –
298.15 K, x2 = 0.2085 | – | 21.94
298.15 K, x2 = 0.302 | – | 21.35
298.15 K, x2 = 0.3087 | 752.48 | –
298.15 K, x2 = 0.3975 | – | 20.86
298.15 K, x2 = 0.4059 | 738.85 | –
298.15 K, x2 = 0.5052 | 726.25 | –
298.15 K, x2 = 0.5054 | – | 20.44
298.15 K, x2 = 0.5986 | 715.56 | –
298.15 K, x2 = 0.6086 | – | 20.17
298.15 K, x2 = 0.7259 | 702.38 | –
298.15 K, x2 = 0.806 | – | 19.99
298.15 K, x2 = 0.8066 | 694.86 | –
298.15 K, x2 = 0.908 | 686.27 | –
298.15 K, x2 = 0.9082 | – | 19.85
298.15 K, x2 = 0.9502 | – | 19.81
298.15 K, x2 = 0.9523 | 682.83 | –
303.15 K, x2 = 0.0491 | – | 22.62
303.15 K, x2 = 0.051 | 791.77 | –
303.15 K, x2 = 0.0997 | – | 22.16
303.15 K, x2 = 0.0998 | 782.61 | –
303.15 K, x2 = 0.2052 | – | 21.41
303.15 K, x2 = 0.2067 | 764.11 | –
303.15 K, x2 = 0.3051 | – | 20.81
303.15 K, x2 = 0.3087 | 748.35 | –
303.15 K, x2 = 0.4003 | – | 20.3
303.15 K, x2 = 0.4059 | 734.65 | –
303.15 K, x2 = 0.504 | – | 19.92
303.15 K, x2 = 0.5052 | 722 | –
303.15 K, x2 = 0.5966 | – | 19.72
303.15 K, x2 = 0.5986 | 711.28 | –
303.15 K, x2 = 0.7052 | – | 19.48
303.15 K, x2 = 0.7259 | 698.07 | –
303.15 K, x2 = 0.8014 | – | 19.39
303.15 K, x2 = 0.8066 | 690.54 | –
303.15 K, x2 = 0.9024 | – | 19.3
303.15 K, x2 = 0.908 | 681.95 | –
303.15 K, x2 = 0.9507 | – | 19.27
303.15 K, x2 = 0.9523 | 678.52 | –
308.15 K, x2 = 0.0507 | – | 22.35
308.15 K, x2 = 0.051 | 787.85 | –
308.15 K, x2 = 0.0998 | 778.63 | –
308.15 K, x2 = 0.1017 | – | 21.89
308.15 K, x2 = 0.2054 | – | 20.98
308.15 K, x2 = 0.2067 | 760.04 | –
308.15 K, x2 = 0.3025 | – | 20.33
308.15 K, x2 = 0.3087 | 744.18 | –
308.15 K, x2 = 0.4017 | – | 19.87
308.15 K, x2 = 0.4059 | 730.42 | –
308.15 K, x2 = 0.5052 | 717.71 | 19.53
308.15 K, x2 = 0.5986 | 706.95 | –
308.15 K, x2 = 0.6007 | – | 19.28
308.15 K, x2 = 0.7259 | 693.71 | –
308.15 K, x2 = 0.7306 | – | 19.2
308.15 K, x2 = 0.8066 | 686.18 | –
308.15 K, x2 = 0.8079 | – | 19.1
308.15 K, x2 = 0.908 | 677.61 | –
308.15 K, x2 = 0.9086 | – | 18.99
308.15 K, x2 = 0.9523 | 674.17 | –
308.15 K, x2 = 0.9532 | – | 18.9

CCCCCCO [hexan-1-ol] + CCCCCCC
Details | mass density [kg/m3] | surface tension liquid-gas [mN/m]
288.15 K, x2 = 0.05 | 814.76 | –
288.15 K, x2 = 0.0507 | – | 25.6
288.15 K, x2 = 0.0976 | 807.66 | –
288.15 K, x2 = 0.1018 | – | 25.01
288.15 K, x2 = 0.2001 | – | 24.02
288.15 K, x2 = 0.3087 | – | 23.22
288.15 K, x2 = 0.3197 | 775.17 | –
288.15 K, x2 = 0.3943 | 764.62 | –
288.15 K, x2 = 0.3949 | – | 22.55
288.15 K, x2 = 0.5021 | – | 22.16
288.15 K, x2 = 0.5088 | 748.93 | –
288.15 K, x2 = 0.6053 | – | 21.8
288.15 K, x2 = 0.6171 | 734.53 | –
288.15 K, x2 = 0.7045 | 723.24 | –
288.15 K, x2 = 0.7097 | – | 21.46
288.15 K, x2 = 0.8055 | – | 21.2
288.15 K, x2 = 0.808 | 710.42 | –
288.15 K, x2 = 0.9066 | – | 21.05
288.15 K, x2 = 0.9072 | 698.54 | –
288.15 K, x2 = 0.9517 | – | 20.94
293.15 K, x2 = 0.0494 | – | 25.01
293.15 K, x2 = 0.05 | 811.17 | –
293.15 K, x2 = 0.0976 | 804.03 | –
293.15 K, x2 = 0.1036 | – | 24.45
293.15 K, x2 = 0.201 | – | 23.47
293.15 K, x2 = 0.3037 | – | 22.65
293.15 K, x2 = 0.3197 | 771.33 | –
293.15 K, x2 = 0.3943 | 760.72 | –
293.15 K, x2 = 0.4422 | – | 21.75
293.15 K, x2 = 0.5056 | – | 21.54
293.15 K, x2 = 0.5088 | 744.95 | –
293.15 K, x2 = 0.5979 | – | 21.26
293.15 K, x2 = 0.6171 | 730.47 | –
293.15 K, x2 = 0.6999 | – | 20.8
293.15 K, x2 = 0.7045 | 719.14 | –
293.15 K, x2 = 0.808 | 706.27 | –
293.15 K, x2 = 0.8091 | – | 20.54
293.15 K, x2 = 0.9061 | – | 20.43
293.15 K, x2 = 0.9072 | 694.33 | –
293.15 K, x2 = 0.951 | – | 20.29
298.15 K, x2 = 0.0497 | – | 24.61
298.15 K, x2 = 0.05 | 807.56 | –
298.15 K, x2 = 0.0976 | 800.37 | –
298.15 K, x2 = 0.0987 | – | 24.05
298.15 K, x2 = 0.2023 | – | 22.92
298.15 K, x2 = 0.3096 | – | 22.09
298.15 K, x2 = 0.3197 | 767.46 | –
298.15 K, x2 = 0.3943 | 756.8 | –
298.15 K, x2 = 0.4078 | – | 21.45
298.15 K, x2 = 0.5054 | – | 21.04
298.15 K, x2 = 0.5088 | 740.94 | –
298.15 K, x2 = 0.6099 | – | 20.58
298.15 K, x2 = 0.6171 | 726.39 | –
298.15 K, x2 = 0.7045 | 715.01 | –
298.15 K, x2 = 0.7075 | – | 20.28
298.15 K, x2 = 0.808 | 702.07 | –
298.15 K, x2 = 0.8127 | – | 20.04
298.15 K, x2 = 0.905 | – | 19.93
298.15 K, x2 = 0.9072 | 690.09 | –
298.15 K, x2 = 0.9515 | – | 19.74
303.15 K, x2 = 0.0488 | – | 24.1
303.15 K, x2 = 0.05 | 803.92 | –
303.15 K, x2 = 0.0976 | 796.68 | –
303.15 K, x2 = 0.1027 | – | 23.55
303.15 K, x2 = 0.1865 | – | 22.62
303.15 K, x2 = 0.31 | – | 21.59
303.15 K, x2 = 0.3197 | 763.56 | –
303.15 K, x2 = 0.3943 | 752.84 | –
303.15 K, x2 = 0.4122 | – | 20.97
303.15 K, x2 = 0.5086 | – | 20.49
303.15 K, x2 = 0.5088 | 736.9 | –
303.15 K, x2 = 0.6147 | – | 20
303.15 K, x2 = 0.6171 | 722.28 | –
303.15 K, x2 = 0.7045 | 710.84 | –
303.15 K, x2 = 0.7097 | – | 19.78
303.15 K, x2 = 0.808 | 697.85 | –
303.15 K, x2 = 0.8089 | – | 19.54
303.15 K, x2 = 0.9068 | – | 19.26
303.15 K, x2 = 0.9072 | 685.82 | –
303.15 K, x2 = 0.9519 | – | 19.13
308.15 K, x2 = 0.0428 | – | 23.64
308.15 K, x2 = 0.05 | 800.26 | –
308.15 K, x2 = 0.0976 | 792.98 | –
308.15 K, x2 = 0.1025 | – | 23.03
308.15 K, x2 = 0.1986 | – | 22
308.15 K, x2 = 0.3055 | – | 21.1
308.15 K, x2 = 0.3197 | 759.64 | –
308.15 K, x2 = 0.3943 | 748.86 | –
308.15 K, x2 = 0.403 | – | 20.52
308.15 K, x2 = 0.498 | – | 20.11
308.15 K, x2 = 0.5088 | 732.83 | –
308.15 K, x2 = 0.6165 | – | 19.57
308.15 K, x2 = 0.6171 | 718.13 | –
308.15 K, x2 = 0.7042 | – | 19.35
308.15 K, x2 = 0.7045 | 706.64 | –
308.15 K, x2 = 0.808 | 693.59 | –
308.15 K, x2 = 0.8118 | – | 19.06
308.15 K, x2 = 0.9054 | – | 18.89
308.15 K, x2 = 0.9072 | 681.51 | –
308.15 K, x2 = 0.9503 | – | 18.77
